Source: EP4707280A1, “1,4-CINEOLE DERIVATIVE AND INTERMEDIATE THEREOF, HERBICIDE CONTAINING SAID DERIVATIVE AS ACTIVE INGREDIENT, METHOD FOR USING HERBICIDE, AND METHOD FOR PREPARING AGROCHEMICAL COMPOSITION” (HOKKO CHEMICAL INDUSTRY CO., LTD., priority 2023, dated 2024)

Key:
Format in all cases: in vivo
Scirpus juncoides [1] = experiment: Test Example 1: herbicidal effect test by soil application in paddy rice; conditions: Schoenoplectiella juncoides, soil, 336 h; 120 g active ingredient per 10 ares; applied immediately after sowing, flooded pots; 14 days after application; read-out: weed inhibition rate
How it was run: (§1)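 Treatment: 120 g active ingredient per 10 ares as a water-diluted emulsifiable concentrate, dropped onto flooded pots immediately after sowing. Thirty seeds per species went 0–1 cm into puddled paddy soil with 16:16:16 fertilizer, with ~3 cm flooding maintained in a glass greenhouse.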

[2] = tested on: Echinochloa crus-galli var. formosensis; experiment: as above; conditions: 120 g active ingredient per 10 ares, applied immediately after sowing, flooded pots, 14 days after application; for pest or weed control at 1200 g/ha: Echinochloa crus-galli, soil, 336 h, read-out: weed inhibition rate
How it was run: as §1

Scirpus juncoides [3] = experiment: Test Example 2: herbicidal effect test by application during growth period of paddy rice; conditions: Schoenoplectiella juncoides; 120 g per 10 ares; applied seven days after sowing, flooded pots; 14 days after application; read-out: weed inhibition rate
How it was run: (§2)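 Weeds sown into puddled, flooded paddy soil received a post-emergence water application of emulsifiable concentrate at 120 g active ingredient per 10 ares, seven days after sowing. Herbicidal effect was rated 14 days later as inhibition (%).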

[4] = tested on: Echinochloa crus-galli var. formosensis; experiment: as above; conditions: 120 g per 10 ares, applied seven days after sowing, flooded pots, 14 days after application; for inhibition at 1200 g/ha: Echinochloa crus-galli, read-out: weed inhibition rate
How it was run: as §2

Echinochloa crus-galli [5] = experiment: Test Example 4: herbicidal effect test by stem and leaf treatment in upland field; conditions: Echinochloa crus-galli; 120 g per 10 ares; sprayed seven days after sowing, upland soil; 14 days after application; read-out: weed inhibition rate
[6] = tested on: Echinochloa crus-galli var. formosensis; experiment: Test Example 5: herbicidal effect test by soil application in paddy rice (low dose); conditions: 7.5 g per 10 ares, applied immediately after sowing, flooded pots, 14 days after application; for inhibition at 75 g/ha: Echinochloa crus-galli, soil, 336 h, read-out: weed inhibition rate
Protocol: (§3) The present test was conducted in duplicate for each chemical concentration group, and the weed inhibition rate (%) was determined 14 days after chemical application using the following formula (Math. 1). [formula]
Wagner pots with an area of […] were filled with paddy soil, followed by addition of water and incorporation of chemical fertilizer (N:P:K = 16:16:16), after which puddling was performed. After that, seeds of Echinochloa crus-galli var. formosensis, broad-leaved weeds (Monochoria vaginalis), and Scirpus juncoides were sown at a depth of 0 cm to 1 cm, 30 seeds each. Immediately after sowing, the pots were flooded and a water depth of approximately 3 cm was maintained. Subsequent management was conducted in a glass greenhouse. Immediately thereafter, an emulsifiable concentrate prepared according to Formulation Example 5 using the compound shown below was diluted with water, and a specified amount of the diluted solution was applied by dropper. The amount of the active ingredient to be applied was equivalent to 7.5 g per 10 ares. […]

Echinochloa crus-galli [7] = experiment: Test Example 3: herbicidal effect test by soil application in upland field; conditions: Echinochloa crus-galli, 120 g per 10 ares, sprayed one day after sowing, 14 days after application, read-out: weed inhibition rate
How it was run: (§4)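 Weed inhibition (%) was assessed 14 days after treatment, in duplicate per concentration group. Seeds had been mixed into the upper 1 cm of upland alluvial loam, and the soil surface was sprayed one day later with the diluted emulsifiable concentrate at 120 g active ingredient per 10 ares.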

[8] = tested on: Echinochloa crus-galli var. formosensis; experiment: Test Example 6: herbicidal effect test by application during growth period of paddy rice (low dose); conditions: 7.5 g per 10 ares, applied seven days after sowing, flooded pots, 14 days after application; for inhibition at 75 g/ha: Echinochloa crus-galli, read-out: weed inhibition rate
Protocol: as §3
Wagner pots with an area of […] were filled with paddy soil, followed by addition of water and incorporation of chemical fertilizer (N:P:K = 16:16:16), after which puddling was performed. After that, seeds of Echinochloa crus-galli var. formosensis, broad-leaved weeds (Monochoria vaginalis), and Scirpus juncoides were sown at a depth of 0 cm to 1 cm, 30 seeds each. Immediately after sowing, the pots were flooded and a water depth of approximately 3 cm was maintained. Subsequent management was conducted in a glass greenhouse. Seven days after sowing, an emulsifiable concentrate prepared according to Formulation Example 5 using the compound shown below was diluted with water, and a specified amount of the diluted solution was applied by dropper. The amount of the active ingredient to be applied was equivalent to 7.5 g per 10 ares. The test was conducted in duplicate for each chemical concentration group, and the herbicidal effect was evaluated 14 days after chemical application using the same criteria as in Test Example 1.

Digitaria ciliaris [9] = experiment: Test Example 3: herbicidal effect test by soil application in upland field; conditions: Digitaria ciliaris, 120 g per 10 ares, sprayed one day after sowing, 14 days after application, read-out: weed inhibition rate
How it was run: as §4

Digitaria ciliaris [10] = experiment: Test Example 4: herbicidal effect test by stem and leaf treatment in upland field; conditions: Digitaria ciliaris; 120 g per 10 ares; sprayed seven days after sowing, upland soil; 14 days after application; read-out: weed inhibition rate

CC(C)[C@]12CC(OCc3ccccc3OC(F)(F)F)[C@](C)(C[C@@H]1Cl)O2 (mixture of isomers) [1-627, (1R,2S,4S,SR)-2-chloro-1-isopropyl-4-methyl-5-[[2-(trifluoromethoxy)phenyl]methoxy]-7-oxabicyclo[2.2.1]heptane]
≥ 80%: pest or weed control at 1200 g/ha (Scirpus juncoides [1]) | pest or weed control at 1200 g/ha [2] | inhibition at 1200 g/ha (Scirpus juncoides [3]) | inhibition at 1200 g/ha [4]

Cc1ccccc1CO[C@@H]1C[C@]2(C(C)C)O[C@@]1(C)CC2c1ccccc1 (stereo partly drawn) [1-313, (1S,2R,4R)-4-isopropyl-1-methyl-2-((2-methylbenzyl)oxy)-5-phenyl-7-oxabicyclo[2.2.1]heptane]
≥ 80%: inhibition at 1200 g/ha (Echinochloa crus-galli [5]) | pest or weed control at 1200 g/ha [2] | inhibition at 75 g/ha [6] | inhibition at 1200 g/ha (Echinochloa crus-galli [7]) | inhibition at 75 g/ha [8] | inhibition at 1200 g/ha [4]

CC(C)[C@]12C[C@@H](OCc3ccccc3C(F)(F)F)[C@](C)(C[C@@H]1Cl)O2 [1-640, (1R,2S,4S,5R)-2-chloro-1-isopropyl-4-methyl-5-[[2-(trifluoromethyl)phenyl]methoxy]-7-oxabicyclo[2.2.1]heptane]
≥ 80%: pest or weed control at 1200 g/ha (Scirpus juncoides [1]) | pest or weed control at 1200 g/ha [2] | inhibition at 1200 g/ha (Scirpus juncoides [3]) | inhibition at 1200 g/ha [4]

Cc1noc(C)c1CO[C@@H]1C[C@]2(C(C)C)O[C@@]1(C)C[C@@H]2Cl [1-663, 4-[[(1S,2R,4R,5S)-5-chloro-4-isopropyl-1-methyl-7-oxabicyclo[2.2.1]heptan-2-yl]oxymethyl]-3,5-dimethyl-isoxazole]
≥ 80%: pest or weed control at 1200 g/ha (Scirpus juncoides [1]) | pest or weed control at 1200 g/ha [2] | inhibition at 1200 g/ha (Scirpus juncoides [3]) | inhibition at 1200 g/ha [4]

CCCCCCO[C@@H]1C[C@]2(C(C)C)O[C@@]1(C)C[C@@H]2Br [1-669, (1S,2R,4R,5S)-5-bromo-2-hexoxy-1-methyl-4-isopropyl-7-oxabicyclo[2.2.1]heptane]
≥ 80%: inhibition at 1200 g/ha (Echinochloa crus-galli [5]) | pest or weed control at 1200 g/ha [2] | inhibition at 1200 g/ha (Digitaria ciliaris [9]) | inhibition at 1200 g/ha (Echinochloa crus-galli [7]) | inhibition at 1200 g/ha (Scirpus juncoides [3]) | inhibition at 1200 g/ha [4] | inhibition at 1200 g/ha (Digitaria ciliaris [10])

CC(C)[C@]12C[C@@H](OCC3CCCCC3)[C@](C)(C[C@@H]1Br)O2 [1-676, (1S,2R,4R,5S)-5-bromo-2-(cyclohexylmethoxy)-1-methyl-4-isopropyl-7-oxabicyclo[2.2.1]heptane]
≥ 80%: inhibition at 1200 g/ha (Echinochloa crus-galli [5]) | pest or weed control at 1200 g/ha (Scirpus juncoides [1]) | pest or weed control at 1200 g/ha [2] | inhibition at 75 g/ha [6] | inhibition at 1200 g/ha (Digitaria ciliaris [9]) | inhibition at 1200 g/ha (Echinochloa crus-galli [7]) | inhibition at 75 g/ha [8] | inhibition at 1200 g/ha [4] | inhibition at 1200 g/ha (Digitaria ciliaris [10])

CC(C)[C@]12C[C@@H](OCc3cccc4ccccc34)[C@](C)(C[C@@H]1Br)O2 [1-715, (1S,2R,4R,5S)-5-bromo-1-methyl-2-(naphthalen-1-ylmethoxy)-4-isopropyl-7-oxabicyclo[2.2.1]heptane]
≥ 80%: pest or weed control at 1200 g/ha [2] | inhibition at 75 g/ha [6] | inhibition at 75 g/ha [8] | inhibition at 1200 g/ha [4]

Cc1noc(C)c1CO[C@@H]1C[C@]2(C(C)C)O[C@@]1(C)C[C@@H]2Br [1-723, 4-[[(1S,2R,4R,5S)-5-bromo-1-methyl-4-isopropyl-7-oxabicyclo[2.2.1]heptan-2-yl]oxymethyl]-3,5-dimethyl-1,2-oxazole]
≥ 80%: pest or weed control at 1200 g/ha [2] | inhibition at 75 g/ha [6] | inhibition at 75 g/ha [8] | inhibition at 1200 g/ha [4]

CC(C)[C@]12C[C@@H](OCc3cccnc3)[C@](C)(C[C@@H]1I)O2 [1-786, 3-[[(1S,2R,4R,5S)-5-iodo-4-isopropyl-1-methyl-7-oxabicyclo[2.2.1]heptan-2-yl]oxymethyl]pyridine]
≥ 80%: pest or weed control at 1200 g/ha (Scirpus juncoides [1]) | inhibition at 1200 g/ha (Scirpus juncoides [3])

CC(C)[C@]12C[C@@H](OCc3ccccc3F)[C@](C)(CC1c1ccsc1)O2 (stereo partly drawn) [1-928, (1S,2R,4R)-2-((2-fluorobenzyl)oxy)-4-isopropyl-1-methyl-5-(thiophen-3-yl)-7-oxabicyclo[2.2.1]heptane]
≥ 80%: inhibition at 1200 g/ha (Echinochloa crus-galli [5]) | pest or weed control at 1200 g/ha [2] | inhibition at 75 g/ha [6] | inhibition at 75 g/ha [8] | inhibition at 1200 g/ha [4] | inhibition at 1200 g/ha (Digitaria ciliaris [10])

CC(=O)O[C@@H]1C[C@]2(C)O[C@@]1(C(C)C)C[C@H]2OCc1ccccc1F [1-932, [(1R,2R,4S,5R)-5-[(2-fluorophenyl)methoxy]-4-methyl-1-isopropyl-7-oxabicyclo[2.2.1]heptan-2-yl]acetate]
≥ 80%: weed inhibition rate [2] | weed inhibition rate [6] | weed inhibition rate [8] | weed inhibition rate [4]

COC(=O)c1ccccc1CO[C@H]1C[C@@]2(C(C)C)O[C@]1(C)C[C@H]2I [1-1115, methyl 2-[[(1R,2S,4S,5R)-5-iodo-1-methyl-4-isopropyl-7-oxabicyclo[2.2.1]heptan-2-yl]oxymethyl]benzoate]
≥ 80%: pest or weed control at 1200 g/ha (Scirpus juncoides [1]) | inhibition at 1200 g/ha (Scirpus juncoides [3])

COC(=O)c1ccccc1COC1CC2(C(C)C)OC1(C)CC2Cl (stereo not shown) [1-1310, methyl 2-[(5-chloro-4-isopropyl-1-methyl-7-oxabicyclo[2.2.1]heptan-2-yl)oxymethyl]benzoate]
≥ 80%: pest or weed control at 1200 g/ha (Scirpus juncoides [1]) | inhibition at 1200 g/ha (Scirpus juncoides [3])

CC(C)C12CC(OCc3cccnc3)C(C)(CC1Cl)O2 (stereo not shown) [1-1321, 3-[(5-chloro-4-isopropyl-1-methyl-7-oxabicyclo[2.2.1]heptan-2-yl)oxymethyl]pyridine]
≥ 80%: pest or weed control at 1200 g/ha (Scirpus juncoides [1]) | inhibition at 1200 g/ha (Scirpus juncoides [3])

CC(C)C12CC(OCc3ccncc3)C(C)(CC1Cl)O2 (stereo not shown) [1-1322, 4-[(5-chloro-4-isopropyl-1-methyl-7-oxabicyclo[2.2.1]heptan-2-yl)oxymethyl]pyridine]
≥ 80%: pest or weed control at 1200 g/ha (Scirpus juncoides [1]) | inhibition at 1200 g/ha (Scirpus juncoides [3])

COC(=O)c1ccccc1COC1CC2(C(C)C)OC1(C)CC2I (stereo not shown) [1-1442, methyl 2-[(5-iodo-4-isopropyl-1-methyl-7-oxabicyclo[2.2.1]heptan-2-yl)oxymethyl]benzoate]
≥ 80%: pest or weed control at 1200 g/ha (Scirpus juncoides [1]) | inhibition at 1200 g/ha (Scirpus juncoides [3])
